Assay results taken from patent publication US9012489B2, “Phenyl-3-aza-bicyclo[3.1.0]hex-3-yl-methanones and the use thereof as medicament” (Boehringer Ingelheim International GmbH, priority 2011, dated 2015).

Target: T1, GlyT1 transporter (Homo sapiens, UniProt P48067)
T1 construct: endogenously expressing the GlyT1 transporter; host or cells: SK-N-MC human neuroblastoma cells
T1 sequence (P48067 1-706): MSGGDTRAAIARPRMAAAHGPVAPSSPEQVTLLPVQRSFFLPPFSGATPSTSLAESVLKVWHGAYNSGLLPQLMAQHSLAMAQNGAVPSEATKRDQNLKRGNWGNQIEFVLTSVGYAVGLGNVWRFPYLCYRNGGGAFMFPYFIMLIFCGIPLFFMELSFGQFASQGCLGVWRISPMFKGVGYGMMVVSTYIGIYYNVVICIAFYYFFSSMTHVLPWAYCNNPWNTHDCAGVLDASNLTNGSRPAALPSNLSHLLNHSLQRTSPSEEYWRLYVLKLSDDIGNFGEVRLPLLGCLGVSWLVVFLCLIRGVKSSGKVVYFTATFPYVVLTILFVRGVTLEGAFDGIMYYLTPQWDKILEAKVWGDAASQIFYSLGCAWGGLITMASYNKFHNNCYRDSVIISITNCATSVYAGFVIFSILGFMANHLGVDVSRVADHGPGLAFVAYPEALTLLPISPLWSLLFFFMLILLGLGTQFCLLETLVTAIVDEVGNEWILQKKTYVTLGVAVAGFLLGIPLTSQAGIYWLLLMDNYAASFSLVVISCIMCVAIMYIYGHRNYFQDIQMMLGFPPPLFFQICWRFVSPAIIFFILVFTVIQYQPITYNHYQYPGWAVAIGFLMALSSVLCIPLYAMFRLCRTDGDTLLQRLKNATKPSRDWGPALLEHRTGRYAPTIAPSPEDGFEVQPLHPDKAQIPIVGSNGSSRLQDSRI
Assay: GlyT1 assay: 3H-glycine uptake into SK-N-MC cells (Cytostar-T format)
Format: cell-based
Details: glycine uptake in human SK-N-MC cells endogenously expressing GlyT1; 500 nM glycine, 1% DMSO, signal recorded over 60 min
Outline: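 Uptake slopes, measured over 60 min from the linear kinetic range, give IC50 from 8 compound concentrations, with 10 μM RG-1678 setting background. Substrate is 500 nM glycine (250 nM ³H, 250 nM unlabelled) in HBSS/5 mM alanine, 1% DMSO, after roughly 5-10 min compound preincubation. Cells: confluent SK-N-MC endogenously expressing human GlyT1.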

SMILES | IC50 [nM]
CS(=O)(=O)c1ccc(O[C@@H]2CCOC2)c(C(=O)N2CC3CC3(c3noc(C(F)(F)F)n3)C2)c1 (mixture of isomers) [Example 138, [5-Methanesulfonyl-2-(tetrahydro-furan-3-yloxy)-phenyl]-[1-(5-trifluoromethyl-[1,2,4]oxadiazol-3-yl)-3-aza-bicyclo[3.1.0]hex-3-yl]-methanone] | 261
CC(C)Oc1ccc(S(C)(=O)=O)cc1C(=O)N1CC2CC2(c2noc(C(F)(F)F)n2)C1 (single isomer, unassigned) [Example 97, (2-Isopropoxy-5-methanesulfonyl-phenyl)-[1-(5-trifluoromethyl-[1,2,4]oxadiazol-3-yl)-3-aza-bicyclo[3.1.0]hex-3-yl]-methanone] | 8
C[C@H](Oc1ccc(C#N)cc1C(=O)N1CC2CC2(c2noc(C(F)(F)F)n2)C1)C(F)(F)F (mixture of isomers) [Example 88, 4-(2,2,2-Trifluoro-1-methyl-ethoxy)-3-[1-(5-trifluoromethyl-[1,2,4]oxadiazol-3-yl)-3-aza-bicyclo[3.1.0]hexane-3-carbonyl]-benzonitrile] | 168
COC1(c2nc(C34CC3CN(C(=O)c3cc(S(C)(=O)=O)ccc3O[C@@H](C)C(F)(F)F)C4)no2)CC1 (single isomer, unassigned) [Example 117, [5-Methanesulfonyl-2-(2,2,2-trifluoro-1-methyl-ethoxy)-phenyl]-{1-[5-(1-methoxy-cyclopropyl)-[1,2,4]oxadiazol-3-yl]-3-aza-bicyclo[3.1.0]hex-3-yl}-methanone] | 6
C[C@@H](Oc1ccc(S(C)(=O)=O)cc1C(=O)N1CC2CC2(c2ncc(C(F)(F)F)o2)C1)C(F)(F)F (mixture of isomers) [Example 128, [5-Methanesulfonyl-2-(2,2,2-trifluoro-1-methyl-ethoxy)-phenyl]-[1-(5-trifluoromethyl-oxazol-2-yl)-3-aza-bicyclo[3.1.0]hex-3-yl]-methanone] | 6
CC1(C)Cc2cc(S(C)(=O)=O)cc(C(=O)N3CC4CC4(c4noc(C(F)(F)F)n4)C3)c2O1 (racemic) [Example 99, (5-Methanesulfonyl-2,2-dimethyl-2,3-dihydro-benzofuran-7-yl)-[1-(5-trifluoromethyl-[1,2,4]oxadiazol-3-yl)-3-aza-bicyclo[3.1.0]-3-yl]-methanone] | 291
C[C@H](Oc1ccc(S(C)(=O)=O)cc1C(=O)N1CC2CC2(c2noc(C(F)(F)F)n2)C1)C(F)(F)F (mixture of isomers) [Example 1, [5-Methanesulfonyl-2-(2,2,2-trifluoro-1-methyl-ethoxy)-phenyl]-[1-(5-trifluoromethyl-[1,2,4]oxadiazol-3-yl)-3-aza-bicyclo[3.1.0]hex-3-yl]-methanone] | 39
CCS(=O)(=O)c1ccc(O[C@H](C)C(F)(F)F)c(C(=O)N2CC3CC3(c3noc(C(F)(F)F)n3)C2)c1 (single isomer, unassigned) [Example 93, [5-Ethanesulfonyl-2-(2,2,2-trifluoro-1-methyl-ethoxy)-phenyl]-[1-(5-trifluoromethyl-[1,2,4]oxadiazol-3-yl)-3-aza-bicyclo[3.1.0]hex-3-yl]-methanone] | 11
C[C@H](Oc1ccc(S(C)(=O)=O)cc1C(=O)N1CC2CC2(c2noc(C3CC3)n2)C1)C(F)(F)F (single isomer, unassigned) [Example 11, [1-(5-Cyclopropyl-[1,2,4]oxadiazol-3-yl)-3-aza-bicyclo[3.1.0]hex-3-yl]-[5-methanesulfonyl-2-(2,2,2-trifluoro-1-methyl-ethoxy)-phenyl]-methanone] | 175
Cc1noc(C23CC2CN(C(=O)c2cc(S(C)(=O)=O)ccc2O[C@@H](C)C(F)(F)F)C3)n1 (mixture of isomers) [Example 34, [5-Methanesulfonyl-2-(2,2,2-trifluoro-1-methyl-ethoxy)-phenyl]-[1-(3-methyl-[1,2,4]oxadiazol-5-yl)-3-aza-bicyclo[3.1.0]hex-3-yl]-methanone] | 98
